Laboratory results from paper PMC9026348, “Investigation of Direct and Retro Chromone-2-Carboxamides Based Analogs of Pseudomonas aeruginosa Quorum Sensing Signal as New Anti-Biofilm Agents” (Pharmaceuticals, 2022).

Tests used:
[1] = system: P. aeruginosa PAO1 biofilms; assay: Anti-biofilm assay, CFU count of adherent cells; type: cell-based, Pseudomonas aeruginosa PAO1; settings: PAO1, 48 h, relative to untreated control, mean ± SD of 3 independent experiments
Description: The effect of all compounds was evaluated on PAO1 biofilms, grown in 24-well microplates. The antibiofilm assay used in this study is based on a low nutritive culture medium, a rather weak inoculum (10^2 CFU/mL), and a regular renewal of the culture medium (at 2, 4, 6, 20, and 24 h), in order to promote the growth of adhered cells as biofilm, instead of the growth and/or sedimentation of planktonic cells. Since the QS systems are involved in early steps of biofilm formation, compounds were added at t0. After incubation, viable cells were quantified by CFU plate counts.
The rather low concentration of 50 µM used was set up according to detected concentrations of QS molecules in CF patients’ lungs. […] For all compounds, MICs/MBCs were higher than 500 µM. To be considered active, a threshold of 50% inhibition, relative to the untreated control, was applied.
Pseudomonas aeruginosa PAO1 was obtained from the Institute Pasteur Collection (CIP 104116, Paris, France), frozen and kept at -80 °C in a 20% (v/v) glycerol stock solution. Before each experiment, two successive subcultures were prepared on trypticase soy agar and incubated for 24 h under aerobic conditions at 37 °C. Before each experiment, bacterial suspensions of 10^8 CFU/mL were prepared by adjusting OD at 640 nm to 0.150.
The bacterial enumerations were done on trypticase soy agar. The minimum biofilm broth used for biofilm formation (MBB) was prepared in sterile distilled water (SDW) and was composed of MgSO4·7H2O (0.02 g/L), FeSO4·7H2O (0.5 mg/L), Na2HPO4 (1.25 g/L), KH2PO4 (0.5 g/L), (NH4)2SO4 (0.1 g/L), and glucose (0.05 g/L) from Merck-Sigma (France).
The enumeration of adhered bacteria was carried-out according to Campanac et al. with some modifications. P. aeruginosa biofilms were grown in a 24-wells microtiter plate for 48 h. The culture medium was composed of BBM 2X (1.0 mL) and 1.0 mL of a 10^−4 M solution of tested compound dissolved in SDW (final concentration 50 µM). After inoculation with 100 µL of a 10^2 CFU/mL bacterial suspension of P. aeruginosa PAO1 (final inoculum 10 CFU/well), the microtiter plate was incubated à 37 °C. After 2 h, 4 h, 6 h, 20 h and 24 h of incubation, each well was emptied, rinsed twice with SDW, and the culture medium was renewed. After 48 h of culture, the biofilm was rinsed twice with 2.0 mL SDW. The bottom of each well was scraped with a sterile spatula and suspended in 1.0 mL of SDW. The content of each well was diluted by serial dilutions in test tubes. After inclusion of 0.9 mL of each dilution in trypticase soy agar, Petri dishes were incubated for 48 h at 37 °C. The number of colony forming units (CFUs) was counted and the inhibition percentage calculated using the following formula: Inhibition(%)=Adhered cellsControl(CFU/mL)−Adhered cellsSample(CFU/mL) /Adhered cellsControl×100

Cytotoxicity, MTT assay = type: cell-based; settings: African green monkey, Vero cells (ATCC CCL-81)
Description: Cells were incubated with different concentrations of compounds 3e, 3′a, 6a, 6b, 6d, 6f, 6k, 6s, 6n, and 6o, varying from 3.9 µM to 1.0 mM. The relative cell viabilities were determined after 24 h using the MTT assay and compared to the untreated control (100% viability). A 5% Tween solution was used as positive control. Figure 5 reports the viability % for all evaluated concentrations.
Evaluation of compounds’ cytotoxicity was performed using the MTT (3-(4,5-dimethylthiazol-2-yl)-2,5-diphenyltetrazolium bromide) colorimetric assay, based on the Mosmann et al. procedure with some modifications. […] Stock solutions of each compound prepared in Dulbeccos’s phosphate-buffered saline (D-PBS, Sigma, St. Quentin Fallavier, France) at a concentration of 2 mM were subjected to 2-fold serial dilutions with RPMI medium.
96-wells microtiter plates were first filled with 100 µL of a cell suspension prepared in RPMI medium (2 × 10^4 cells/100 µL). […] A third control was performed with a non-inoculated culture medium and compounds solution to validate the absence of interactions (OD measurements) between the assessed molecule and the reagents used in the procedure. […] After agitation, the OD was measured at 570 nm using a CLARIOstar Plus plate reader (BMG Labtech) and the viability percentage was calculated using the following formula. […]

O=C(Nc1cc(=O)c2ccccc2o1)c1ccc([N+](=O)[O-])cc1[N+](=O)[O-] [6n, 2,4-Dinitro-N-(4-oxo-4H-chromen-2-yl) benzamide]
Biofilm Inhibition (%) ([1]; 50 µM): 90.0 ± 9.9% | inhibition at 50 µM ([1]; Pseudomonas aeruginosa): 90.9 ± 9.9% | IC50 at 24 h (Cytotoxicity, MTT assay): > 1 mM | melting point: 252 °C
